# From patent US5231091A, “Bis-arylphosphate ester antagonists of platelet activating factor” (priority 1992, dated 1993)
# Structures can show the parent of a compound that is named as a salt.
# Key:
# PAF receptor [1] = biological target: T1, PAF receptor (Oryctolagus cuniculus, UniProt G1TEI7); assay: Inhibition of PAF-induced aggregation in rabbit platelet rich plasma; format: cell-based, rabbit (male New Zealand White); details: rabbit platelet rich plasma; PAF challenge 5E-8M; number of experiments in parentheses; read-out: IC50 inhibition of PAF-induced aggregation
# T1 construct: endogenous in cells; host or cells: rabbit platelets (male New Zealand White)
# Method: (§1) Test compounds were evaluated as PAF receptor antagonists in vitro by measuring inhibition of PAF (platelet activating factor) induced platelet aggregation. Platelet aggregation was measured by a modification of the method described in A. Wissner, et. al., J. Med. Chem., 27, 1174, 1984.
# Approximately 120-240 ml of blood were collected by cardiac puncture from unanesthetized male New Zealand White rabbits (Whaley's Summit View Farms, Belvedere, N.J.) with the use of 3.2% sodium citrate anticoagulant (1 part of citrate/10 parts of blood). All syringes and pipets were plastic. The blood was gently mixed and immediately centrifuged at 800 rpm for 10-15 minutes at room temperature to recover the platelet rich plasma (PRP). Platelet poor plasma (PPP) was prepared by centrifuging PRP at 2800 rpm for 10 minutes at room temperature.
# Dilutions (1:3000) of PRP in Isoton® diluent were made and platelet counts were determined on a Coulter Thrombocounter which was standardized with platelet reference standards (Interscience Platelet Control, Portland, Oreg.). PRP platelet counts were adjusted to approximately 400,000-500,000 platelets/μl by the addition of PPP.
# (§2) L-PAF was obtained from Calbiochem. A stock solution of 1-2 E-3M was prepared in 10% ethanol in water or 100% methanol and serial working dilutions were made using phosphate buffered saline (PBS). 1-2 E-3M stock solutions of test compounds were prepared in 100% methanol and serially diluted in PBS. All solutions were made up in plastic tubes, stored on ice and protected from heat and light. Solutions were prepared fresh or frozen at -20° C. and used within 48 hours.
# (§3) Incubation mixtures consisted of 400 μl PRP, 50 μl of PBS diluent or test compound and 50 μl of PAF agonist. More specifically, 400 μl of PRP was stabilized in a cuvette for 1-2 minutes at 37° C. in the aggregometer to achieve a stable baseline, then 50 μl of PBS or test compound, was added and incubated for 5 minutes before addition of the challenge concentration of PAF (final concentration of 5E-8M or 1E-7M, as determined from the dose response curve for PAF for that experiment). Aggregation was monitored for 5 minutes. Samples containing test compound or diluent were run simultaneously for comparison. Test compounds were initially evaluated at a screening concentration of 1E-5M.
# (§4) The recording equipment consisted of a dual channel Chronolog aggregometer connected to a dual channel 10 MV full scale deflection Omniscribe chart recorder (Houston Instruments). […] The bead suspension was used to set the 0% light transmission mark and clear water was used to set the 100% light transmission mark. These limits defined a full scale deflection. The aggregation traces were analyzed by a digitizing method (C. Kohler and B. Zoltan, J. Pharm. Methods, 12, 113, 1984) with x, y coordinate data stored in a computer file. A suitable program computed parameters of interest such as the magnitude of aggregation.
# PAF receptor [2] = biological target: T2, PAF receptor (Homo sapiens, UniProt P25105); assay: Inhibition of PAF-induced aggregation in human platelet rich plasma; format: cell-based; details: PAF challenge 1E-6M, number of experiments in parentheses
# T2 construct: Blood from healthy volunteers was collected; endogenous in cells; host or cells: human platelets (healthy volunteers)
# Method: as §1, §2, §3, §4
# In some experiments, human PRP was used instead of rabbit PRP. Blood from healthy volunteers was collected in Vacutainers® containing the Na citrate diluent and processed in a manner similar to rabbit blood to obtain the PRP. For these experiments, the challenge concentration of PAF was 1E-6M.
# [3] = test system: endotoxin induced mortality; assay: Endotoxin induced shock and mortality in mice; format: in vivo, mouse (male Balb/c)
# Text: The test compounds (PAF antagonists) were also efficacious when administered iv prior to a lethal iv injection of endotoxin (Table IX).
# PAF induced skin lesions = assay: Guinea pig vascular permeability (skin lesion) model; format: in vivo, guinea pig (Hartley)
# PAF induced lethality = PAF induced lethality in mice; format: in vivo; details: corrected for control lethality
# Method: PAF given I.V. to mice causes an immediate hypotensive shock leading to death in 1 hour or less. Compounds were given intraperitoneally or P.O. at various times before the PAF challenge. Animals alive after 2 hours were counted and the activity of test compounds expressed as % survival corrected for any control (saline treated) animals which survived the PAF challenge.
# LPS induced hypotension = assay: Endotoxin (LPS) induced hypotension in rats; format: in vivo, rat (male Wistar); details: anesthetized rats; 10 ug/kg intraarterially 5 minutes after LPS 15 mg/kg I.V.
# Method: Bacterial cell wall lipopolysaccharide from E. coli strain 0111:B4 (Sigma #L-2630) was dissolved in saline at a concentration of 3.75 mg/ml and administered to rats at 15 mg/kg I.V. Test compounds were dissolved in saline at 1 mg/ml, diluted to 10 ug/ml, and injected intraarterially at 1 ml/kg (10 ug/kg). Male wistar strain rats were obtained from Charles River Labs and maintained according to ALAC standards. They were anesthetized with 30 mg/kg pentobarbital ip with supplementation as needed. The throat was opened, the left carotid artery was cannulated with PE-10 tubing and the trachea cannulated with 0.100 O.D. tubing. Ventilation was maintained by a Harvard Apparatus small animal pump at a rate sufficient to nearly abolish spontaneous respiration.
# PAF receptor [4] = biological target: T1, PAF receptor; assay: Inhibition of PAF-induced aggregation in washed rabbit platelets; format: cell-based; details: PAF challenge 5E-9M, number of experiments in parentheses
# Method: as §1, §2
# as §3, with “More” for “Incubation mixtures consisted of 400 μl PRP, 50 μl of PBS diluent or test compound and 50 μl of PAF agonist. More”, “400 μl of PRP was stabilized in a cuvette” left out, “1E-5M. […]” for “1E-5M.”
# [5] = 10 mg/kg IP 2 hours prior to IP endotoxin
# [6] = footnote c: I.P. 4 mg/kg 1 hour before PAF
# T2 sequence (P25105 whole entry): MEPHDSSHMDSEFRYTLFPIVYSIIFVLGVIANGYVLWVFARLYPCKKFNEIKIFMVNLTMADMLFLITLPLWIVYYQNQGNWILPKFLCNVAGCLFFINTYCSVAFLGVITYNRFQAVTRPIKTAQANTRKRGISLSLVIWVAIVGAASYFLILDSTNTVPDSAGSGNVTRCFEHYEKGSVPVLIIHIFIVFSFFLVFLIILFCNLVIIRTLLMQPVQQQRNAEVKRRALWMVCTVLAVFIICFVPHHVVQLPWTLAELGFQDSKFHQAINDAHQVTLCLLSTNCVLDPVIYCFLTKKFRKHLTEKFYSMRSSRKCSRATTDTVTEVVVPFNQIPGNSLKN
# T1 sequence (G1TEI7 1-342): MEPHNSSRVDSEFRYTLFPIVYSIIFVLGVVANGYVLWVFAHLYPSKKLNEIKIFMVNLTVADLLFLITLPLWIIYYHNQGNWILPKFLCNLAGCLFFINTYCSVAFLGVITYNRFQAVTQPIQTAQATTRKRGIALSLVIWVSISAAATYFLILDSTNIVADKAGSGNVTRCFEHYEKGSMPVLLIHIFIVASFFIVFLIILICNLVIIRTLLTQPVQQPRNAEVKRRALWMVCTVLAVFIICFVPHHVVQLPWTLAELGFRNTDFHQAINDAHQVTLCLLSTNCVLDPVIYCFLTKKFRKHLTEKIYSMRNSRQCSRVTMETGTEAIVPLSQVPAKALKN
SMILES,IC50 (PAF receptor [1]),IC50 (PAF receptor [2]),"24 hour survival, treated [3, 5]",also measured
"CCCCCCCCCCCCCCCCOc1cccc(OP(=O)([O-])Oc2cccc(C[n+]3ccsc3)c2)c1 [3-[[3-[[[3-(Hexadecyloxy)phenoxy]hydroxyphosphinyl]-oxy]phenyl]methyl]-thiazolium, hydroxide, inner salt]",2130 nM,2500 nM,–,–
"CCCCCCCCCCCCCCCCOc1cccc(OP(=O)([O-])Oc2cccc(C[n+]3ccsc3)c2)c1C [3-[[3-[[[3-(Hexadecyloxy)-2-methylphenoxy]hydroxyphosphinyl]oxy]phenyl]methyl]-thiazolium, hydroxide, inner salt]",2650 nM,119 nM,–,–
"CCCCCCCCCCCCOc1cc(C(C)(C)C)c(OP(=O)([O-])Oc2cccc(C[n+]3cccc4ccccc43)c2)cc1C(C)(C)C [1-[[3-[[[2,5-Bis(1,1-dimethylethyl)-4-(dodecyloxy)phenoxy] hydroxyphosphinyl]oxy]phenyl]methyl]quinolinium, hydroxide, inner salt]",1360 nM,47500 nM,–,–
"CCCCCCCCCCCCCCOc1cccc(OP(=O)([O-])Oc2cccc(C[n+]3ccsc3)c2)c1OC [3-[[3-[[Hydroxy]2-methoxy-3-(tetradecyloxy)phenoxy]-phosphinyl]oxy]phenyl]methyl]-thiazolium, hydroxide inner salt]",7500 nM,26400 nM,7/30,"24 hour survival, treated ([3]; 30 mg/kg IP 2 hours prior to IP endotoxin, control 4/50): 12/50; Survival after 24 hrs., treated ([3]; Table IX, 10 mg/kg iv prior to iv endotoxin, footnote prints IP, control 0/20): 4/20; PAF induced skin lesions, % of control (PAF induced skin lesions; [6]): 75%; PAF induced lethality, % protection (PAF induced lethality; I.P. 10 mg/kg): 12%; % reversal of LPS induced hypotension (fall in mean arterial pressure) (LPS induced hypotension): 89%"
"CCCCCCCCCCCCOc1cc(C(C)(C)C)c(OP(=O)([O-])Oc2cccc(C[n+]3ccsc3)c2)cc1C(C)(C)C [3-[[3-[[[2,5-Bis(1,1-dimethylethyl)-4-(dodecyloxy)phenoxy]hydroxyphosphinyl]oxy]phenyl]methyl]thiazolium, hydroxide, inner salt]",–,1930 nM,4/20,"24 hour survival, treated ([3]; 20 mg/kg IP 2 hours prior to IP endotoxin): 6/20; 24 hour survival, treated ([3]; 40 mg/kg IP 2 hours prior to IP endotoxin): 6/20; IC50 (PAF receptor [4]): 2.12 nM; PAF induced skin lesions, % of control (PAF induced skin lesions; footnote d: P.O. 5 mg/kg 4 hours before PAF): 49%; PAF induced lethality, % protection (PAF induced lethality; [6]): 27%"
